# Measurements as given in patent US6472152B1 (priority 1998, dated 2002).
# Where “and” joins values, the source holds several entries; their conditions need not be identical. Identical values can stand only once. Like-named read-outs stand apart in the source and are kept apart here.
# Tests used:
# [1] = tested on: Salmonella typhimurium TA104 recN2-4
# [2] = tested on: Salmonella typhimurium TA104 pr1
# [3] = tested on: TA104 recN2-4 and TA104 pr1 strain
# [4] = tested on: Salmonella typhimurium TA104 recN2-4; settings: van der Lelie et al, 1997; cited from earlier work
# SOS signal = settings: normally; cited from earlier work
# [5] = without S9-mix, maximal S/N, 60-240 min
# [6] = without S9-mix, ratio of maximal S/N values
# [7] = without S9-mix, ratio of mean S/N values
# [8] = without S9-mix, within the dose-range tested
molecule,measurement,setting,value
"O=[N+]([O-])c1ccc2c(c1)Cc1cc([N+](=O)[O-])ccc1-2 [2,7Dinitrofluoreen]",concentration at which S/R > 2 (recN2 − 4),[1],0.62 ppm
same,Toxic (pri),[2],−
same,concentration at which S/R's of rec/pri >1.5 MAX,[3],0.62 ppm
same,concentration at which S/R's of rec/pri >1.5 MEAN,[3],0.62 ppm
c1ccc2c(c1)-c1cccc3cccc-2c13 [Fluoranthene],concentration at which S/R > 2 (recN2 − 4),[1]; Salmonella typhimurium,3.1 ppm
same,Toxic (pri),[2],−
same,concentration at which S/R's of rec/pri >1.5 MAX,[3]; Salmonella typhimurium,3.1 ppm
same,concentration at which S/R's of rec/pri >1.5 MEAN,[3]; Salmonella typhimurium,3.1 ppm
ClCC1CO1 (centres unmarked) [Epichlorohydrine],S/N values in the recN2-4 strain,[1],> 2
same,S/N values in the pr1 strain,[2],~1
same,toxicity evaluation,[2],not toxic in the given dose-range
same,genotoxicity evaluation,[3],genotoxic
COS(C)(=O)=O [MMS],concentration at which S/R > 2 (recN2 − 4),[1]; [5],16 ppm and 8 ppm
same,concentration at which S/R's of rec/pri >1.5 MAX,[3]; [6],8 ppm
same,concentration at which S/R's of rec/pri >1.5 MEAN,[3]; [7],8 ppm
c1ccc2c(c1)ccc1c3ccccc3ccc21 [Chrysene],concentration at which S/R's of rec/pri >1.5 MAX,[3]; S9-mix +100 μl/ml,10 ppm
same,concentration at which S/R's of rec/pri >1.5 MEAN,[3]; S9-mix +100 μl/ml,5 ppm
COC(=O)N/N=C/c1c[n+]([O-])c2ccccc2[n+]1[O-] [Carbadox],concentration at which S/R > 2 (recN2 − 4),[1]; [5],0.08 ppm
same,concentration at which S/R's of rec/pri >1.5 MAX,[3]; [6],0.08 ppm
same,concentration at which S/R's of rec/pri >1.5 MEAN,[3]; [7],0.04 ppm
CCn1cc(C(=O)O)c(=O)c2ccc(C)nc21 [Nalidixic acid],concentration at which S/R > 2 (recN2 − 4),[1]; [5],0.16 ppm
same,Toxic (pri),[2]; [8],+
same,concentration at which S/R's of rec/pri >1.5 MAX,[3]; [6],0.16 ppm
same,concentration at which S/R's of rec/pri >1.5 MEAN,[3]; [7],0.16 ppm
O=C1OCCN1/N=C/c1ccc([N+](=O)[O-])o1 [Furazolidone],concentration at which S/R's of rec/pri >1.5 MAX,[3]; Salmonella typhimurium,0.5 ppb
CCN(CC)N=O [N-Nitrosodiethylamine],concentration at which S/R > 2 (recN2 − 4),[1]; S9-mix +25 μl/ml,120 ppm
same,concentration at which S/R's of rec/pri >1.5 MAX,[3]; S9-mix +25 μl/ml,120 ppm
same,concentration at which S/R's of rec/pri >1.5 MEAN,[3]; S9-mix +25 μl/ml,240 ppm
O=[N+]([O-])c1ccc2c3c(cccc13)-c1ccccc1-2 [3-Nitrofluoranthene],concentration at which S/R > 2 (recN2 − 4),[1]; S9-mix +25 μl/ml,15.7 ppb
same,concentration at which S/R > 2 (recN2 − 4),[1]; [5],15.7 ppb
same,concentration at which S/R > 2 (recN2 − 4),"[1]; without S9-mix, maximal S/N, 60-240 min, listed as 3Nitrofluoranthene",0.032 ppm
same,concentration at which S/R's of rec/pri >1.5 MAX,[3]; S9-mix +25 μl/ml,31.2 ppb
same,concentration at which S/R's of rec/pri >1.5 MEAN,[3]; S9-mix +25 μl/ml,15.7 ppb
same,concentration at which S/R's of rec/pri >1.5 MAX,[3]; [6],31.3 ppb
same,concentration at which S/R's of rec/pri >1.5 MAX,"[3]; without S9-mix, ratio of maximal S/N values, listed as 3Nitrofluoranthene",0.064 ppm
same,concentration at which S/R's of rec/pri >1.5 MEAN,[3]; [7],15.7 ppb
same,concentration at which S/R's of rec/pri >1.5 MEAN,"[3]; without S9-mix, ratio of mean S/N values, listed as 3Nitrofluoranthene",0.032 ppm
Nc1ccc([N+](=O)[O-])cc1N [4Nitro-o-Phenylenediamine],concentration at which S/R > 2 (recN2 − 4),[1]; S9-mix +25 μl/ml,12.5 ppm
same,concentration at which S/R > 2 (recN2 − 4),[1]; [5],3.1 ppm
same,concentration at which S/R's of rec/pri >1.5 MAX,[3]; S9-mix +25 μl/ml,12.5 ppm
same,concentration at which S/R's of rec/pri >1.5 MEAN,[3]; S9-mix +25 μl/ml,12.5 ppm
same,concentration at which S/R's of rec/pri >1.5 MAX,[3]; [6],3.1 ppm
same,concentration at which S/R's of rec/pri >1.5 MEAN,[3]; [7],1.57 ppm
Nc1cccc2ccccc12 [a-Naphtylamine],concentration at which S/R's of rec/pri >1.5 MAX,[3],2.5 ppm
same,concentration at which S/R's of rec/pri >1.5 MEAN,[3],2.5 ppm
c1ccc2c(c1)ccc1ccccc12 [Phenanthrene],concentration at which S/R > 2 (recN2 − 4),[1]; S9-mix +100 μl/ml,6.2 ppm
same,Toxic (pri),"[2]; S9-mix +100 μl/ml, within the dose-range tested",+
same,concentration at which S/R's of rec/pri >1.5 MAX,[3]; S9-mix +100 μl/ml,6.2 ppm
same,concentration at which S/R's of rec/pri >1.5 MEAN,[3]; S9-mix +100 μl/ml,6.2 ppm
COc1ccc2nc3cc(Cl)ccc3c(NCCCNCCCl)c2c1 [ICR 191 Acridine],concentration at which S/R > 2 (recN2 − 4),[1],0.62 ppm
same,Toxic (pri),[2],−
same,concentration at which S/R's of rec/pri >1.5 MAX,[3],1.25 ppm
same,concentration at which S/R's of rec/pri >1.5 MEAN,[3],0.31 ppm
CCOS(C)(=O)=O [EMS],concentration at which S/R > 2 (recN2 − 4),[1]; [5],256 ppm
same,concentration at which S/R's of rec/pri >1.5 MAX,[3]; [6],256 ppm
same,concentration at which S/R's of rec/pri >1.5 MEAN,[3]; [7],256 ppm
"[N-]=[N+]=[N-] [Sodium azide (NaN3), Sodium azide]","response in the VITOTOX test with the recN2-4 strain alone, previously reported",[4],positive
same,score in the SOS chromotest,SOS signal,negative
same,S/N values in the recN2-4 strain,[1]; Salmonella typhimurium,greater than 2
same,Toxic (pri),[2],+
same,S/N values in the pr1 strain,[2]; Salmonella typhimurium,greater than 2
same,"S/N, indications of toxicity obtained with time",[2]; Salmonella typhimurium,< 0.8
same,genotoxicity evaluation,[3],non-genotoxic
O=C(N/N=C/c1ccc([N+](=O)[O-])o1)c1ccc(O)cc1 [Nifuroxazide],toxicity evaluation,"[2]; light production, without S9mix",dose-dependent decrease in light production indicating toxicity
same,doses not toxic (S/N curves for the pr1 strain),"[2]; pr1 strain, FIG. 4",up to 0.16 ppm
same,Toxic (pri),[2]; [8],+
same,effect at higher doses,[3],toxicity combined with genotoxicity
Nc1ccc2c(c1)Cc1ccccc1-2 [2AF],concentration at which S/R's of rec/pri >1.5 MAX,[3],0.2 ppm
same,concentration at which S/R's of rec/pri >1.5 MEAN,[3],0.2 ppm
CO[C@@]12[C@H](COC(N)=O)C3=C(C(=O)C(C)=C(N)C3=O)N1C[C@@H]1N[C@@H]12 [MMC],concentration at which S/R's of rec/pri >1.5 MEAN,[3]; [7],15.6 ppb
Coumermycine A1,Toxic (pri),[2],+
